We go through 8 compounds from PubChem BioAssay (NCI).

Among the test systems are SN12C renal; U251 CNS; LOX IMVI melanoma; OVCAR-3 ovarian; EKVX NSCLC; HS 578T breast; IGROV1 ovarian; HCT-116 colon; SK-MEL-5 melanoma; ACHN renal.
Common to all, as to assay: NCI tumour cell line growth inhibition, 48 h

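Five concentrations, 48 hours, 96-well plates. Definition used: TGI = concentration required for complete inhibition of growth.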

As to `C/C=C\C1OC1(C)c1cc(=O)c2c(C)cc3c(c2o1)C(=O)c1c(O)c(C2CC(C)(N(C)C)C(OC(C)=O)C(C)O2)cc(C2CC(N(C)C)C(O)C(C)O2)c1C3=O` (stereo not given), the TGI in the test on SN12C renal came out at 0.0134 µM; in the test on U251 CNS it was 0.0394 µM; in the test with LOX IMVI melanoma it was 0.00485 µM; in the test with OVCAR-3 ovarian, 0.0365 µM; with EKVX NSCLC, 0.0224 µM; in the test with HS 578T breast it was 0.0223 µM. Moreover, the TGI in the test on IGROV1 ovarian came to 0.183 µM; with HCT-116 colon it was 0.0429 µM; with SK-MEL-5 melanoma, 0.00936 µM; in the test with ACHN renal it was 0.00575 µM.
With `O=C(c1ccccc1)c1ccc(N2C(=O)/C(=C/c3ccccc3S)N=C2c2ccccc2)c(N2C(=O)/C(=C/c3ccccc3S)N=C2c2ccccc2)c1`, the TGI in the test on SN12C renal is > 100 µM; with U251 CNS it was > 100 µM; in the test on LOX IMVI melanoma, 62.9 µM; with OVCAR-3 ovarian it was 51.2 µM; in the test with EKVX NSCLC, > 100 µM; in the test on HS 578T breast, > 100 µM. Moreover, the TGI with IGROV1 ovarian is > 100 µM; in the test with HCT-116 colon it was > 100 µM; in the test on SK-MEL-5 melanoma, 87.6 µM; with ACHN renal, > 100 µM.
Consider `CCCCCCC(=O)OC[n+]1ccc(-c2c(COC(=O)NC(C)C)c(COC(=O)NC(C)C)c3n2CCC3)cc1`, for which the TGI in the test with SN12C renal, in the test with U251 CNS, in the test on LOX IMVI melanoma, in the test with OVCAR-3 ovarian, in the test on EKVX NSCLC and in the test with HS 578T breast was > 100 µM in each case. Further, the TGI in the test with IGROV1 ovarian, in the test with HCT-116 colon, in the test on SK-MEL-5 melanoma and with ACHN renal was > 100 µM in each case.
`CCOC(=O)c1sc2nc(SC)nc3c2c1NC(=O)CN3c1ccc(F)cc1`: the TGI was 69.1 µM with SN12C renal; > 100 µM with U251 CNS; > 100 µM in the test with LOX IMVI melanoma; > 100 µM with OVCAR-3 ovarian; > 100 µM with EKVX NSCLC; 53.3 µM in the test on HS 578T breast. Besides, the TGI in the test on IGROV1 ovarian was > 100 µM; with HCT-116 colon, > 100 µM; in the test on SK-MEL-5 melanoma, > 100 µM; in the test on ACHN renal it was 93.4 µM.
Consider `C/C(=C\[Si](C)(C)c1ccco1)C(C)(O)[C@H](C)O` (stereo not given in full), for which the TGI in the test on SN12C renal, in the test on U251 CNS, in the test with LOX IMVI melanoma, with OVCAR-3 ovarian, with EKVX NSCLC and with HS 578T breast was > 100 µM throughout. For the same compound, the TGI with IGROV1 ovarian, in the test on HCT-116 colon, with SK-MEL-5 melanoma and in the test on ACHN renal was > 100 µM each time.
Take `Cc1csc2nc(-c3cc([N+](=O)[O-])c(Cl)cc3Cl)c(/C=N/N=C(N)N)n12`: the TGI in the test with SN12C renal came to 29.8 µM; with U251 CNS it was 30.5 µM; in the test with LOX IMVI melanoma, 33.1 µM; in the test with OVCAR-3 ovarian, 43.6 µM; in the test on EKVX NSCLC it was 38.2 µM; in the test on HS 578T breast it was 32.7 µM. The TGI is 30 µM in the test on IGROV1 ovarian, 39.5 µM in the test with HCT-116 colon, 30.9 µM in the test with SK-MEL-5 melanoma and 30.9 µM in the test on ACHN renal.
On to `CC(=O)NC1C(OCc2ccccc2)OC(CO)C(O)C1OCC(=O)NC(C(=O)NC(CCC(=O)NCCCCCC(=O)Nc1ccc2c(c1)CN1C(=O)c3ccccc3C1=N2)C(N)=O)C(C)C` (stereo not given), for which the TGI is > 100 µM with SN12C renal; 39.2 µM in the test with U251 CNS; > 100 µM with LOX IMVI melanoma; > 100 µM in the test on OVCAR-3 ovarian; > 100 µM in the test on EKVX NSCLC; 51 µM in the test with HS 578T breast. Besides, the TGI was 50.4 µM in the test on IGROV1 ovarian, > 100 µM with HCT-116 colon, 49.6 µM in the test on SK-MEL-5 melanoma and > 100 µM in the test on ACHN renal.
With `CCOC(=O)N1c2ccccc2N(C(=O)OCC)C1CC(=O)/C=C/c1ccccc1`, the TGI with SN12C renal is 14.4 µM; with U251 CNS, 12.8 µM; in the test on LOX IMVI melanoma, 7.06 µM; with OVCAR-3 ovarian, 9.95 µM; in the test with EKVX NSCLC, 8.54 µM; in the test on HS 578T breast, > 19.9 µM. For the same compound, the TGI in the test with IGROV1 ovarian was determined as 17.8 µM; in the test on HCT-116 colon it was 11.6 µM; in the test on SK-MEL-5 melanoma, 8.92 µM; in the test with ACHN renal, 15.7 µM.
